Patent US20100197714A1, “SPIRO-PYRANO-PYRAZOLE DERIVATIVES” (priority 2007, published 2010)

Legend:
σ2-receptor = target: T1, σ2-receptor (Rattus norvegicus, UniProt Q5U3Y7); assay: Sigma 2 (Version B) radioligand binding, [3H]-ditolylguanidine, rat liver preparation, σ1 sites masked with (+)-pentazocine; conditions: for inhibition at 1 µM: compound at 1 μM; for Ki: [3H]-ditolylguanidine 3 nM
T1 construct: the σ2-Receptorpreparation was prepared from rat liver; from tissue; host or cells: rat liver membrane homogenate
T1 sequence (Q5U3Y7 1-176): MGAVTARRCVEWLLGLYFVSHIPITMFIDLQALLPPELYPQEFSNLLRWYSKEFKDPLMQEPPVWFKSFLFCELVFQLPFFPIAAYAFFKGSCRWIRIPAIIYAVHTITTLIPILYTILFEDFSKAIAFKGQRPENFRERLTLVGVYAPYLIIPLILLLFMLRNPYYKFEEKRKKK
Method: In brief the σ2-Receptorpreparation was prepared from rat liver. The livers were homogenized in 5 to 6 times of volume sucrose solution (0.32M) and homogenized. The homogenate was centrifuged at 2900 rpm, 4° C., 10 min). the supernatant was centrifuged again (31000×g, 4° C., 20 min). The pellet was resuspended in TRIS-buffer, incubated for 30 min at room temperature while stirring and centrifuged f (31000×g, 4° C., 20 min). The pellet was resuspended in cold TRIS-buffer pH 8 and homogenized. Then the protein content was measured (approx. 2 mg/mL) and the homogenate frozen at −80° C. for later use.
The radioligand used was [^3H]-Ditolylguanidin in TRIS-buffer pH 8. The σ1-receptor binding sites were masked through (+)-Pentazocin-solution in TRIS-Puffer pH 8.
In a volume of 200 μL 50 μL compound solution of varying concentration, 50 μL (+)-Pentazocin-solution (2 μM; resulting in 500 nM in the assay), 50 μL radioligand-solution (12 nM; resulting in 3 nM in the assay) and finally 50 μL of receptor preparation (approx. 2 mg/mL) were given into a well of a microplate equipped with a filter. The plate was closed and stirred for 2 h at room temperature and 500 rpm. Following that the solvents were removed by a harvester through the filter. After rinsing with H2O the filter was measured in a scintillation counter ([^3H]-protocol).

σ1-receptor [1] = target: T2, σ1-receptor (Cavia porcellus, UniProt Q60492); assay: Sigma 1 (Version B) radioligand binding, [3H]-(+)-pentazocine, guinea pig brain preparation; parameters: the σ1-receptor preparation was prepared from guinea pig brain; from tissue; host or cells: guinea pig brain membrane homogenate
T2 sequence (Q60492 whole entry): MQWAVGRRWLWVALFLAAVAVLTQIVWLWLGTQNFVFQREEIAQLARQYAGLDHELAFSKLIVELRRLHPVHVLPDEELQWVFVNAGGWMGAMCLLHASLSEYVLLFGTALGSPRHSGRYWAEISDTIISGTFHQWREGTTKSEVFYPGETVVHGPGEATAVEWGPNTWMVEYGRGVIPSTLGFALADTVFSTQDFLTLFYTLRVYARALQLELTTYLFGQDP
Method: In brief the σ1-receptor preparation was prepared from guinea pig brain. The brains were homogenized in 5 to 6 times of volume sucrose solution (0.32M) and homogenized. The homogenate was centrifuged at 2900 rpm, 4° C., 10 min). the supernatant was centrifuged again (23500×g, 4° C., 20 min). The pellet was resuspended in Tris-buffer, incubated for 30 min at room temperature and centrifuged f (23500×g, 4° C., 20 min). The pellet was resuspended in cold TRIS-buffer and homogenized. Then the protein content was measured (approx. 1.5 mg/mL) and the homogenate frozen at −80° C. for later use.
The radioligand used was […]-(+)-Pentazocin in TRIS-buffer. In a volume of 200 μL 50 μL TRIS-buffer, 50 μL compound solution of varying concentration, 50 μL radioligand-solution (8 nM; resulting in 2 nM in the assay) and finally 50 μL of receptor preparation (approx. 1.5 mg/mL) were given into a well of a microplate equipped with a filter. The plate was closed and stirred for 2.5 h at 37° C. and 500 rpm. Following that the solvents were removed by a harvester through the filter. After rinsing with H2O the filter was measured in a scintillation counter ([^3H]-protocol).

σ1-receptor [2] = target: T2, σ1-receptor; assay: Sigma-1 (Version A) radioligand binding, [3H](+)-pentazocine, guinea pig brain membranes
Method: Brain membrane preparation and binding assays for the σ1-receptor were performed as described (DeHaven-Hudkins et al., 1992) with some modifications. In brief, guinea pig brains were homogenized in 10 vols. […] The homogenate was centrifuged at 1000 g for 10 min at 4° C. and the supernatants collected and centrifuged again at 48000 g for 15 min at 4° C.
Each assay tube contained 10 μL of [^3H](+)-pentazocine (final concentration of 0.5 nM), 900 μL of the tissue suspension to a final assay volume of 1 mL and a final tissue concentration of approximately 30 mg tissue net weight/mL. […] All tubes were incubated at 37° C. for 150 min before termination of the reaction by rapid filtration over Schleicher & Schuell GF 3362 glass fibre filters [previously soaked in a solution of 0.5% polyethylenimine for at least 1 h]. […] Following addition of scintillation cocktail, the samples were allowed to equilibrate overnight. The amount of bound radioactivity was determined by liquid scintillation spectrometry using a Wallac Winspectral 1414 liquid scintillation counter.

[3] = version B, guinea pig brain, [3H]-(+)-pentazocine 2 nM, read-out: Binding σ1 Ki

| Compound | inhibition at 1 µM (σ2-receptor) | Ki (σ1-receptor [1]; [3]) | Ki (σ2-receptor) | Ki (σ1-receptor [2]) | Ki (σ1-receptor [1]) |
| --- | --- | --- | --- | --- | --- |
| COC1OC2(CCNCC2)c2cnn(-c3ccccc3)c21 (stereo not drawn) [Example 2, 6′-Methoxy-1′-phenyl-4′,6′-dihydro-1′H-spiro[piperidin-4,4′-furo[3,4-c]pyrazole]] | 12% | 1200 nM |  |  |  |
| COC1OC2(CCN(Cc3ccccc3)CC2)c2cnn(-c3ccccc3)c21 (stereo not drawn) [Example 3, 1-Benzyl-6′-methoxy-1′-phenyl-4′,6′-dihydro-1′H-spiro[piperidin-4,4′-furo[3,4-c]pyrazole]] |  |  | 1750 nM | 2.7 nM |  |
| CCCCN1CCC2(CC1)OC(OC)c1c2cnn1-c1ccccc1 (stereo not drawn) [Example 4, 1-Butyl-6′-methoxy-1′-phenyl-4′,6′-dihydro-1′H-spiro[piperidin-4,4′-furo[3,4-c]pyrazole]] |  | 1.28 nM | 1050 nM | 1.2 nM |  |
| COC1Cc2c(cnn2-c2ccccc2)C2(CCN(Cc3ccccc3)CC2)O1 (stereo not drawn) [Example 5, 1-Benzyl-6′-methoxy-1′-phenyl-6′,7′-dihydro-1′H-spiro[piperidin-4,4′-pyrano[4,3-c]pyrazole]] | 22% |  |  |  | 1.46 nM |
| CCCN1CCC2(CC1)OC(OC)Cc1c2cnn1-c1ccccc1 (stereo not drawn) [Example 7, 6′-Methoxy-1′-phenyl-1-propyl-6′,7′-dihydro-1′H-spiro[piperidin-4,4′-pyrano[4,3-c]pyrazole]] |  |  | 3030 nM |  |  |
| COC1Cc2c(cnn2-c2ccccc2)C2(CCN(C(C)C)CC2)O1 (stereo not drawn) [Example 8, 1-Isopropyl-6′-methoxy-1′-phenyl-6′,7′-dihydro-1′H-spiro[piperidin-4,4′ pyrano[4,3-c]pyrazole]] |  |  | 3210 nM | > 100 nM |  |
| CCCCN1CCC2(CC1)OC(OC)Cc1c2cnn1-c1ccccc1 (stereo not drawn) [Example 9, 1-Butyl-6′-methoxy-1′-phenyl-6′,7′-dihydro-1′H-spiro[piperidin-4,4′-pyrano[4,3-c]pyrazole]] |  |  | 752 nM |  | 8.04 nM |
| COC1Cc2c(cnn2-c2ccccc2)C2(CCN(CC(C)C)CC2)O1 (stereo not drawn) [Example 10, 1-Isobutyl-6′-methoxy-1′-phenyl-6′,7′-dihydro-1′H-spiro[piperidin-4,4′-pyrano[4,3-c]pyrazole]] |  |  | 933 nM | 9.4 nM |  |
| CCCCCN1CCC2(CC1)OC(OC)Cc1c2cnn1-c1ccccc1 (stereo not drawn) [Example 11, 6′-Methoxy-1-pentyl-1′-phenyl-6′,7′-dihydro-1′H-spiro[piperidin-4,4′-pyrano[4,3-c]pyrazole]] |  |  | 340 nM |  | 0.82 nM |
| COC1Cc2c(cnn2-c2ccccc2)C2(CCN(CCc3ccccc3)CC2)O1 (stereo not drawn) [Example 16, 6′-Methoxy-1′-phenyl-1-(2-phenylethyl)-6′,7′-dihydro-1′H-spiro[piperidin-4,4′-pyrano[4,3-c]pyrazole]] |  |  | 570 nM |  | 2.73 nM |
| COC1Cc2c(cnn2-c2ccccc2)C2(CCN(CCCc3ccccc3)CC2)O1 (stereo not drawn) [Example 17, 6′-Methoxy-1′-phenyl-1-(3-phenylpropyl)-6′,7′-dihydro-1′H-spiro[piperidin-4,4′-pyrano[4,3-c]pyrazole]] |  |  | 833 nM |  | 3.24 nM |
| COc1ccc(CN2CCC3(CC2)OC(OC)Cc2c3cnn2-c2ccccc2)cc1 (stereo not drawn) [Example 20, 6′-Methoxy-1-(4-methoxybenzyl)-1′-phenyl-6′,7′-dihydro-1′H-spiro[piperidin-4,4′-pyrano[4,3-c]pyrazole]] |  |  | 925 nM |  | 1.54 nM |
| COC1Cc2c(cnn2C)C2(CCN(Cc3ccccc3)CC2)O1 (stereo not drawn) [Example 22, 1-Benzyl-6′-methoxy-1′-methyl-6′,7′-dihydro-1′H-spiro[piperidin-4,4′-pyrano[4,3-c]pyrazole]] | 0% |  |  |  | 21.4 nM |
| COC1Cc2c(cnn2C)C2(CCN(CCCc3ccccc3)CC2)O1 (stereo not drawn) [Example 24, 6′-Methoxy-1′-methyl-1-(3-phenylpropyl)-6′,7′-dihydro-1′H-spiro[piperidin-4,4′-pyrano[4,3-c]pyrazole]] |  |  | 1730 nM |  | 92.7 nM |
| COC1Cc2c(cnn2C)C2(CCN(Cc3ccc(F)cc3)CC2)O1 (stereo not drawn) [Example 25, 1-(4-Fluorbenzyl)-6′-methoxy-1′-methyl-6′,7′-dihydro-1′H-spiro[piperidin-4,4′-pyrano[4,3-c]pyrazole]] | 46% |  |  |  | 21.1 nM |
| COC1Cc2c(cnn2C)C2(CCN(CCC(C)C)CC2)O1 (stereo not drawn) [Example 26, 1-Isopentyl-6′-methoxy-1′-methyl-6′,7′-dihydro-1′H-spiro[piperidin-4,4′-pyrano[4,3-c]pyrazole]] | 22% |  |  |  | 17.8 nM |
| CCCN1CCC2(CC1)OC(OC)Cc1c2cnn1C (stereo not drawn) [Example 27, 6′-Methoxy-1′-methyl-1-propyl-6′,7′-dihydro-1′H-spiro[piperidin-4,4′-pyrano[4,3-c]pyrazole]] | 0% |  |  |  |  |
| Cn1ncc2c1CC(O)OC21CCN(Cc2ccccc2)CC1 (stereo not drawn) [Example 28, 1-Benzyl-1′-methyl-6′,7′-dihydro-1′H-spiro[piperidin-4,4′-pyrano[4,3-c]pyrazole]-6′-ol] | 21% |  |  |  | 190 nM |
| Cn1ncc2c1C=COC21CCN(Cc2ccccc2)CC1 [Example 29, 1-Benzyl-1′-methyl-1′H-spiro[piperidin-4,4′-pyrano[4,3-c]pyrazole]] |  |  | 429 nM |  | 11.8 nM |
| Cn1ncc2c1CCOC21CCN(Cc2ccccc2)CC1 [Example 30, 1-Benzyl-1′-methyl-6′,7′-dihydro-1′H-spiro[piperidin-4,4′-pyrano[4,3-c]pyrazole]] |  |  | 191 nM |  | 9.18 nM |
| OC1Cc2c(cnn2-c2ccccc2)C2(CCN(Cc3ccccc3)CC2)O1 (stereo not drawn) [Example 32, 1-Benzyl-1′-phenyl-6′,7′-dihydro-1′H-spiro[piperidin-4,4′-pyrano[4,3-c]pyrazole]-6′-ol] | 41% |  |  |  | 27.1 nM |
| C1=Cc2c(cnn2-c2ccccc2)C2(CCN(Cc3ccccc3)CC2)O1 [Example 33, 1-Benzyl-1′-phenyl-1′H-spiro[piperidin-4,4′-pyrano[4,3-c]pyrazole]] |  |  | 557 nM |  | 1.48 nM |
| c1ccc(CN2CCC3(CC2)OCCc2c3cnn2-c2ccccc2)cc1 [Example 34, 1-Benzyl-1′-phenyl-6′,7′-dihydro-1′H-spiro[piperidin-4,4′-pyrano[4,3-c]pyrazole]] |  |  | 773 nM |  | 1.71 nM |
| CC(C)CCN1CCC2(CC1)OCCc1c2cnn1-c1ccccc1 [Example 35, 1-Isopentyl-1′-phenyl-6′,7′-dihydro-1′H-spiro[piperidin-4,4′-pyrano[4,3-c]pyrazole]] |  | 0.98 nM | 83.3 nM |  |  |
| CC(C)=CCN1CCC2(CC1)OCCc1c2cnn1-c1ccccc1 [Example 36, 1-(Methylbut-2-en-1-yl)-1′-phenyl-6′,7′-dihydro-1′H-spiro[piperidin-4,4′-pyrano[4,3-c]pyrazole]] |  |  | 269 nM |  | 0.97 nM |
| c1ccc(CCCN2CCC3(CC2)OCCc2c3cnn2-c2ccccc2)cc1 [Example 37, 1-Phenylpropyl-1′-phenyl-6′,7′-dihydro-1′H-spiro[piperidin-4,4′-pyrano[4,3-c]pyrazole]] |  |  | 102 nM |  |  |
| c1ccc(-n2ncc3c2CCOC32CCN(CC3CCCCC3)CC2)cc1 [Example 38, 1-(Cyclohexan-1-ylmethyl)-1-phenyl-6′,7′-dihydro-1′H-spiro[piperidin-4,4′-pyrano[4,3-c]pyrazole]] |  | 0.43 nM | 42.8 nM |  |  |
| CC(C)CCN1CCC2(CC1)OCCc1c2cnn1C [Example 39, 1-Isopentyl-1′-methyl-6′,7′-dihydro-1′H-spiro[piperidin-4,4′-pyrano[4,3-c]pyrazole]] | 27% | 29.9 nM |  |  |  |
| CC(C)=CCN1CCC2(CC1)OCCc1c2cnn1C [Example 40, 1-(Methylbut-2-en-1-yl)-1′-methyl-6′,7′-dihydro-1′H-spiro[piperidin-4,4′-pyrano[4,3-c]pyrazole]] | 49% |  |  |  |  |
| Cn1ncc2c1CCOC21CCN(CCCc2ccccc2)CC1 [Example 41] |  | 17.4 nM | 1070 nM |  |  |
